The source of these data is paper PMC9318816, “Differential Effects of a Novel Opioid Ligand UTA1003 on Antinociceptive Tolerance and Motor Behaviour” (Pharmaceuticals, 2022).

The Emax is the greatest response seen or fitted, relative to the assay's reference. A word on the EC50: it is the concentration needed to bring the measured effect to its halfway point. By Kd is commonly meant the free concentration of one partner at which half of the binding sites on the other are occupied at equilibrium, for simple one-to-one binding. The pKi is the Ki on a negative log10 scale, so that one unit is a factor of ten.

Where two headings read alike, the source gives them in different places. Non-standard residues stand in square brackets, D forms with d. Residues, ends and D or L forms follow the SMILES beside them. *: point of attachment. Dmt = Cc1cc(O)cc(C)c1C[C@H](N)C(=O)O; Pip = O=C(O)[C@@H]1CCCCN1; NHBn = c1ccc(CN*)cc1

One series concerns the target T1, human MOP receptor (Homo sapiens, UniProt P35372).
T1 construct: expressed in transfected cells; host or cells: CHO (CHO-MOP, G418 selection)
Kind of series: cAMP assay in CHO-MOP cells (agonism). The class given is cell-based.

For series [1], the target named is T2, human DOP receptor (Homo sapiens, UniProt P41143).
T2 construct: expressed in transfected cells; host or cells: CHO (CHO-DOP, G418 selection)
T2 sequence (P41143 whole entry): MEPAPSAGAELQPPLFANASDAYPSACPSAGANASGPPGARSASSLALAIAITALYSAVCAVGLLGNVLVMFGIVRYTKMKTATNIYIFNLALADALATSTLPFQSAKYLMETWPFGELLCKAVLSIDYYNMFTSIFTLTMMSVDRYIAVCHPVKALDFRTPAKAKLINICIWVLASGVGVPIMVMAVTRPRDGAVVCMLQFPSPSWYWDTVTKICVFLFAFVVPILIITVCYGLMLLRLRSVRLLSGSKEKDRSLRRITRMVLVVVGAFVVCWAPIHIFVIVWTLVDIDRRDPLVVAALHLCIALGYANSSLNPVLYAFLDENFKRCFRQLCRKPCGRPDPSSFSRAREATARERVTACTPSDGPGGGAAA
Briefly: cAMP assay in CHO-DOP cells (agonism). To be noted: for Inhibition of forskolin-stimulated cAMP production: 100 µM ligand, CHO-DOP cells, reference DPDPE. The series is classed as cell-based.

In series [2] the target is T2, human DOP receptor. Kind of series: Antagonism of DPDPE effect in cAMP assay, CHO-DOP cells. The series is classed as cell-based. As to the method:
The antagonist effect of UTA1003 was calculated as described in previous studies. […] (Figure 3E, Table 1).
For a direct comparison between the UTA ligands, standard compounds, and for the concentration-response curves, the pharmacological effect was calculated as % of inhibition of forskolin-induced cAMP production, and the values were used for statistical analysis.
For orientation: Cyclic AMP is a second messenger, typically raised through Gs and lowered through Gi signalling.

Another series is described as follows: Solubility (subjective). The class given is physicochemical. Particulars: detailed solubility experiments not performed.
The test system of series [3] is Sprague Dawley rats. Briefly: Observation of physiological or behavioural toxicity after subcutaneous administration. To be noted: for Physiological or behavioural toxicity: subcutaneous administration.
The test system of series [4] is Sprague Dawley rats. Kind of series: Open-field motor behaviour.
A further series has as its system rat hippocampus. More on the design: method as in earlier work. Particulars: approximately five times lower dose; cited from earlier work.
A further series has as its target T3, human NOP receptor (Homo sapiens, UniProt P41146).
T3 construct: expressed in transfected cells; host or cells: CHO (CHO-NOP, G418 and hygromycin B selection)
Kind of series: cAMP assay in CHO-NOP cells (agonism). The series is classed as cell-based.

The target in another series is T4, human KOP receptor (Homo sapiens, UniProt P41145).
T4 construct: expressed in transfected cells; host or cells: CHO (CHO-KOP, G418 selection)
T4 sequence (P41145 whole entry): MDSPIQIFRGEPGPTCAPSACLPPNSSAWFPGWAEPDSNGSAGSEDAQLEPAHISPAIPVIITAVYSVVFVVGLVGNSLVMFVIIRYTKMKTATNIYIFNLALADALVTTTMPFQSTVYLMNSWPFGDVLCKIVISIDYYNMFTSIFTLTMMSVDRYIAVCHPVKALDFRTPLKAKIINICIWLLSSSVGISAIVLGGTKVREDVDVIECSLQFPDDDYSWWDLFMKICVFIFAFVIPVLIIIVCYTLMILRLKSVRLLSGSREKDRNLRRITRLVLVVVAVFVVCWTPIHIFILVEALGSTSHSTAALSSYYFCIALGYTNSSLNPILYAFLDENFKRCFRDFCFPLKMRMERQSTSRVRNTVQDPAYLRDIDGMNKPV
Briefly: cAMP assay in CHO-KOP cells (agonism). The series is classed as cell-based.

The subject of series [5] is untransfected Chinese hamster ovary (CHO-WT) cells. Kind of series: cAMP assay: inhibition of forskolin-stimulated cAMP in untransfected CHO cells. The series is classed as cell-based. Particulars: 100 µM ligand, 1 µM forskolin.
For series [6], the system named is Sprague Dawley rats. Briefly: Hot plate antinociception assay. Particulars: repeated s.c. twice daily treatment; days 2, 5 and 8.
The target of a further series is DOP receptor. To be noted: cited from earlier work.
The target of another series is NOP receptor. More on the design: method as in PMID 22194444. To be noted: partial agonist; cited from earlier work.
A further series addresses KOP receptor. More on the design: method as in PMID 22194444. Particulars: partial agonist; cited from earlier work.

T3 sequence (P41146 whole entry): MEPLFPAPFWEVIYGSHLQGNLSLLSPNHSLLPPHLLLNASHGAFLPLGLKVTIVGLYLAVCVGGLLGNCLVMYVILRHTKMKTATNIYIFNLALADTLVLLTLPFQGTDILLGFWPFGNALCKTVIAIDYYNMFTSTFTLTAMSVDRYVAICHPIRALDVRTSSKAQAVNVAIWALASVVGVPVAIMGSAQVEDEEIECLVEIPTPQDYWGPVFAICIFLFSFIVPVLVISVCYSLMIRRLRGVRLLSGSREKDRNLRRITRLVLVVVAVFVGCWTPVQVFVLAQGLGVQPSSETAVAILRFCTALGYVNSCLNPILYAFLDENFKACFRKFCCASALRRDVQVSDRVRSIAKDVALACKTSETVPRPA
T1 sequence (P35372 whole entry): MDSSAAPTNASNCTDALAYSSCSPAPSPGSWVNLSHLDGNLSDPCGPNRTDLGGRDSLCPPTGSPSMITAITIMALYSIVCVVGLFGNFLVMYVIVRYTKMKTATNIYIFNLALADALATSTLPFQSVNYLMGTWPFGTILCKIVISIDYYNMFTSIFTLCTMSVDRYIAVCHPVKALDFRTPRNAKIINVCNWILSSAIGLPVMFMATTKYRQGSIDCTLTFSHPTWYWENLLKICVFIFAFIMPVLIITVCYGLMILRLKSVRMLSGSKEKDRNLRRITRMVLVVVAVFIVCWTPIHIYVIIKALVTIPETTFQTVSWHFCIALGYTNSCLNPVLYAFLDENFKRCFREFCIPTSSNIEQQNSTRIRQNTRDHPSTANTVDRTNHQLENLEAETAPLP

Take `C[C@@H](NC(=O)[C@@H](N)Cc1ccc(O)cc1)C(=O)NCC(=O)N(C)[C@@H](Cc1ccccc1)C(=O)NCCO` [DAMGO, reference compound]: the Emax at human MOP receptor (CHO-MOP, inhibition of forskolin-stimulated cAMP, read-out: Emax (%)) amounted to 88.8%.
`Cc1cc(O)cc(C)c1C[C@H](N)C(=O)N1CCCC[C@H]1C(=O)NCC(=O)NCc1ccccc1` [UTA1003] (H-[Dmt]-[Pip]-Gly-NHBn): the Emax was determined as 28.2% at human DOP receptor [1], 82.4% on human MOP receptor, 28.3% at human NOP receptor and 94.5% at human KOP receptor. In addition, the “Inhibition of forskolin-stimulated cAMP production” value at human DOP receptor [1] was “significantly lower specificity than DPDPE”; in series [5], “not observed”. Also, the EC50 at human DOP receptor [1] (EC50, CHO-DOP, 1 µM forskolin) was 26.6 nM; on human DOP receptor [1] (pEC50, CHO-DOP) it was 26.3 nM; at human MOP receptor (EC50, CHO-MOP, 1 µM forskolin) it was 6.89 nM; on human MOP receptor (pEC50, CHO-MOP), 6.92 nM; on human NOP receptor (EC50, CHO-NOP, 5 µM forskolin), 1790 nM; at human NOP receptor (pEC50, CHO-NOP) it was 1780 nM. Further, the concentration for a half-maximal effect (EC50) at human KOP receptor (EC50) and at human KOP receptor (pEC50) was 30.9 nM each time. The Kb on human DOP receptor [2] (CHO-DOP, read-out: DOP receptor antagonism pKb (converted)) is 47.9 nM. Further, the Kd at human DOP receptor [2] (read-out: Antagonist Effect (Kd)) turned out to be 47.8 nM. For the same molecule, the “Solubility compared to UFP-505” value in the series “Solubility (subjective)” is reported as “subjectively displayed better solubility”. For the same molecule, the Itching entry in the series with Sprague Dawley rats [3] (repeated dosing) was “absent”. Besides, in the series on Sprague Dawley rats [3], the “Physiological or behavioural toxicity” value is on record as “did not observe any physiological or behavioural toxicity”. For the same molecule, the “Rearing time and rearing numbers, open field” value in the series with Sprague Dawley rats [4] (acute s.c., 30 min post administration) was “slightly reduced rearing time and rearing numbers than vehicle”. In addition, the “Total rotational activities, open field” value with Sprague Dawley rats [4] (acute s.c., 120 min observation) is recorded as “remained unaffected”. In the series on Sprague Dawley rats [4] (acute s.c., UTA1003 24.6 mg/kg), the “Moving distance, open field” value was “unaffected”. In the series with Sprague Dawley rats [4] (acute s.c., UTA1003 24.6 mg/kg, 30 min post administration), the “Moving time, open field” value was “significantly reduced moving time compared to the vehicle group”. Also, the “Motor behaviour after repeated treatment, open field” value in the series with Sprague Dawley rats [4] (s.c. twice daily over 8 days, 30 min post administration) is on record as “only a mild but significant suppression of motor activity on the first day”. In addition, the “Oxidative damage in the rat hippocampus” value in the series with rat hippocampus is given as “reduced oxidative damage in the rat hippocampus”.
Take `CN1CC[C@]23c4c5ccc(O)c4O[C@H]2[C@@H](O)C=C[C@H]3[C@H]1C5` [morphine]: in the series with Sprague Dawley rats [6], the “Antinociception, morphine versus UTA1003/morphine at same day, hot plate” value is reported as “significantly lower than those of the UTA1003/morphine co-treatment on day 2”.
Regarding H-Dmt-Tic-Gly-NH-Bzl [UFP-505], the “Inhibition of forskolin-stimulated cAMP production” value at human DOP receptor [1] is recorded as “significantly lower specificity than DPDPE”; in series [5] it was “not observed”. The figures for the “DOP receptor antagonism pKb” value on DOP receptor (ref 37) and at DOP receptor (ref 60) were 9.81 and 10.50, respectively. Further, in the series on Sprague Dawley rats [3], the “Physiological or behavioural toxicity” value is on record as “did not observe any physiological or behavioural toxicity”. Moreover, the pKi at NOP receptor is on record as 5.86; at KOP receptor it was 6.29.
